What all share (assay type): biochemical
Experiment [1] has as its target T1, Zea mays EPSPS variant Zm-H6 (868-H6) with V87T (H6-V87T) (Zea mays, UniProt O24566, A1R/A3W/A415G/A71Q/D401G/E301S/E390G/G101A/I207L/K83R/L97C/T278A/T360S/T440Q/V437R/V86T).
T1 construct: 868-H6 plus V87T; E. coli BL21(DE3), Ni-NTA purified
T1 sequence (O24566 with tags, fused parts or gaps A1R/A3W/A71Q/K83R/V86T/L97C/G101A/I207L/T278A/E301S/T360S/E390G/D401G/A415G/V437R/T440Q): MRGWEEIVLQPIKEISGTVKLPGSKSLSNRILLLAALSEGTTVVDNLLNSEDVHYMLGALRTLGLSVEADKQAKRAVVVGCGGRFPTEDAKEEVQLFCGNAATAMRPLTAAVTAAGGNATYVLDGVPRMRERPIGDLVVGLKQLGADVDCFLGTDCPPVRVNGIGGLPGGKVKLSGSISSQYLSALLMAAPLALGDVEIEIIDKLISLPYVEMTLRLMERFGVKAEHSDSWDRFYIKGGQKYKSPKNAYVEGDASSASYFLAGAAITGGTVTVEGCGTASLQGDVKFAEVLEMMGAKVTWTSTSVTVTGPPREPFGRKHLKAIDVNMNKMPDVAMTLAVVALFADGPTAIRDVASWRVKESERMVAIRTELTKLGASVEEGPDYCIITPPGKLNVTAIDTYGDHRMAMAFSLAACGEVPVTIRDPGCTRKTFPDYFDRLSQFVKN
Kind of experiment: Rapid two-rate method for (kcat/KM)*KI, H6-V87T. The note with it: [E] 0.07 uM, [Gly] 1000 uM. The source says:
(§1) There are several practical considerations for accurately estimating (kcat/KM)*KI with the rapid method. […] 2) The inhibitor concentration must be adjusted so as to obtain a degree of inhibition that minimally amplifies the error in the term v0-vi in Equation 3. If inhibition is too little, v0-vi will be small, and the error in the multiplier vi×v0/(v0-vi) will be large. […] 3) Substrate concentration should be set at the approximate KM of the parental variant(s), subject to the sensitivity of the assay. High substrate concentration obscures sensitivity to the inhibitor and reduces stringency for capturing improvements in KM. Depending on the necessity for speed, there exists opportunity for customizing enzyme and inhibitor concentrations. […] The rapid method was repeated for those and obtained data that correlated better with data obtained by substrate saturation analysis. For screening purposes however, that correlation step is not necessary. Conditions can be set so that variants with a pre-determined minimal fitness level are accurately quantified.
(§2) In Table 15, parameters above the heavy line for the rapid method were obtained under standard conditions. For variants shown below the heavy line, the rapid analysis was repeated with enzyme or glyphosate concentrations adjusted as needed to generate sufficient signal within the limits for linear initial rates.

In experiment [2] the target is Zea mays EPSPS variant Zm-G102A (Zea mays, UniProt O24566, G101A). Kind of experiment: Rapid two-rate method for (kcat/KM)*KI, Zm-G102A. As to conditions: [E] 0.07 uM, [Gly] 1000 uM.
Chain of Zea mays EPSPS variant Zm-G102A (O24566 entry or part of it G101A): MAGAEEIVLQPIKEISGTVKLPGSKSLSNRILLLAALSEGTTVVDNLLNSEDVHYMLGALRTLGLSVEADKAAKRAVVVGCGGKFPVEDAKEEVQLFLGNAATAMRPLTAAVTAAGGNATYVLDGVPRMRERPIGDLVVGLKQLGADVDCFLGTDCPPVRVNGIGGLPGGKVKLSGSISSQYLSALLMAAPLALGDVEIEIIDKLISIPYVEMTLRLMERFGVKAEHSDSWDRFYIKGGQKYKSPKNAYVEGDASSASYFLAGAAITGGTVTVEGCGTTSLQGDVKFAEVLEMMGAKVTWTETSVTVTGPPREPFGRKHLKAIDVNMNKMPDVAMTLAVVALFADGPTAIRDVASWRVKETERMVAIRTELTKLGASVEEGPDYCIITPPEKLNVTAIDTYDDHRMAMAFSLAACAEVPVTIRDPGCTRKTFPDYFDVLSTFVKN
Text: as §1, §2

Experiment [3] concerns the target Zea mays EPSPS variant 771-C2 (A4W, H54M, L98C, G102A, K173R, I208L, K243E, E302S, T361S, E391P, D402G, A416G, V438R, S440R, T441Q, F442V), SEQ ID NO:4 (Zea mays, UniProt O24566, A3W/A415G/D401G/E301S/E390P/F441V/G101A/H53M/I207L/K172R/K242E/L97C/S439R/T360S/T440Q/V437R). Kind of experiment: EPSPS substrate saturation kinetics, 771-C2. The procedure:
EPSPS activity was determined by quantifying the phosphate generated from the EPSPS reaction. Release of inorganic phosphate was coupled to reaction with 2-amino-6-mercapto-7-methylpurine ribonucleoside, catalyzed by purine-nucleoside phosphorylase (M R Webb, Proc. Natl. Acad. Sci. 89:4884-4887, 1992). The absorbance change that occurs was monitored at 360 nm, where the extinction is 11,200 M^−1 cm^−1, with a Spectramax plate reader (Molecular Devices). To determine kinetic parameters, the varied substrate was present at seven concentrations (the eighth being the blank, containing no substrate) ranging from 4 to 400 uM and the unvaried substrate present at saturation. […] Reactions were monitored with a Spectramax plate reader. […] KI was then calculated from the following form of the Michaelis-Menten equation for competitive inhibition: KI=KM[I]/(KM app−KM) KM approximates the dissociation constant of the enzyme-substrate complex while kcat is the rate of conversion of substrate to product when the substrate concentration is saturating. kcat/KM is a widely accepted parameter for catalytic efficiency when substrate concentration is low (˜KM). […] The parameter kcat/KM×KI is used to quantify both catalytic efficiency and insensitivity and thus the overall fitness of the enzyme. […]

SMILES strings stand for the structures.

In the case of `O=C(O)CNCP(=O)(O)O` [glyphosate, N-phosphonomethylglycine], the “(kcat/KM)*KI” value was 3190 in experiment [1]; 3596 in experiment [2]; 5800 in experiment [3] (PEP as substrate, glyphosate as inhibitor). Further, the Ki (as a rule, a dissociation constant, usually derived from enzyme kinetics or from competition with a known ligand) in experiment [3] is 350 µM.

The values above are taken from US11549123B2, “Plant EPSP synthases and methods of use” (PIONEER HI-BRED INTERNATIONAL, INC., priority 2015, dated 2023).
